# pEC50, pIC50: −log10 of the molar value. Where two headings read alike, the source gives them in different places.
# Experiments:
# [1] = test system: MOLM-13-R-PKC412 (midostaurin-resistant) cells; experiment: CellTiter-Glo cell viability; type: cell-based, human
# Description: In the clinic, tyrosine kinase inhibitors that target FLT3 initially show positive responses, but patients inevitably relapse due to the development of drug-resistance through various mechanisms, as discussed above.
# MOLM-14 cells (FLT3-ITD) = experiment: CellTiter-Glo cell viability (single agent and combination); type: cell-based; conditions: 72 hours; for pIC50: Homo sapiens, MOLM-14, 72 h, read-out: EC50 (cell viability)
# Procedure: HS-5 is a human marrow stromal cell line that secretes various growth factors sufficient to support hematopoietic progenitor growth (Roecklein et al., Blood, 1995) which thus mimics stromal conditions.
# Three cell lines which harbor FLT3-ITD were used for the drug combination studies (MV-4-11, MOLM-13, and MOLM-14).
# Cells were treated with the drugs (single agent or combination) for 72 hours. Drug combination activity was determined by first measuring cell viability with CellTiter-Glo®, followed by the calculation of the EC50 corresponding to single agent activity, using the R DRC package (R Core Team, 2017). The combination index (CI) values were computed using the Chou-Talalay method (Chou T, Cancer Research., 2010 70(2): 440-6.), based on the viability of each drug alone and in combination, across all concentrations tested. In brief, CI was defined as: […]
# Loss of function mutations of KDM6A are observed in FLT3-ITD AML (Garg et al., 2015 Blood 126 (22):2491-501). […] To therapeutically exploit this finding, we hypothesized that inhibiting EZH2, the histone H3K27 methyltransferase that functionally opposes KDM6A, would enhance sensitivity to MPC-0767. To test this hypothesis, a FLT3-ITD cell line (MV-4-11) was used and treated with either of the two clinical stage EZH2 inhibitors, EPZ-6438 and CPI-1205, at 8 different concentrations for 4 days. Following this time, cells were counted, reseeded and treated with 8 concentrations of EZH2 inhibitor alone, 8 concentrations of MPC-0767 alone, or the combination of the two (64 total combinations).
# [2] = test system: PD-L1 on primary AML patient samples; experiment: PD-L1 cell surface expression by flow cytometry; type: cell-based, human; conditions: 24 hours
# Procedure: To study whether MPC-0767 blocks IFN-γ-induced PD-L1 expression, six AML patient samples harboring FLT3 WT (n=2) or FLT3-ITD (n=4) were treated with human IFN-γ (50 ng/ml) alone, MPC-0767 (1 μM) alone or the combination of the two for 24 hours. Cells were then harvested to assess PD-L1 cell surface expression by flow cytometry. Cells were also stained with the AML blast markers CD34 or CD45 (to gate on the blast population) and a viability stain to gate on viable cells.
# MOLM16 cells = experiment: CellTiter-Glo cell viability; type: cell-based; conditions: MOLM16, 72 h
# NOMO1 (NOMO-1) cells = experiment: CellTiter-Glo cell viability (single agent and combination); type: cell-based; conditions: NOMO1, 72 h
# OCIAML3 cells = experiment: CellTiter-Glo cell viability; type: cell-based; conditions: OCIAML3, 72 h
# THP1 (THP-1) cells = experiment: CellTiter-Glo cell viability (single agent and combination); type: cell-based; conditions: THP1, 72 h
# OCI-AML2 AML cell line = experiment: In vitro T-cell-mediated killing assay (active caspase-3); type: cell-based; conditions: MPC-0767 2 μM overnight, then pp65 enriched CD8+ T cells 4 hours
# Procedure: The ability of MPC-0767 to increase T cell killing was determined in an in vitro T-cell-mediated killing assay. The OCI-AML2 AML cell line was labeled with the cell staining dye CFSE and treated overnight with MPC-0767 (2 μM) and human cytomegalovirus pp65495-503 peptide. […] After 4 hours of co-culture, cells were harvested, fixed, permeabilized, and stained for the active form of caspase-3 as a direct read-out of apoptotic cell death.
# The CI is a quantitative measure used to determine whether the combined effect of a drug pair is synergistic, additive, or antagonistic. The CI is calculated as CI=(E1+E2)/E12, where E12 is a normalized biological response (e.g., % Caspase-3+ cells) for the combination of Drug A and Drug B, and E1 and E2 are the response measured for each single drug treatment, respectively. CI values less than 1 indicate synergy, with the magnitude of the effect indicated by how much less than 1 the synergy score is. A more detailed mathematical treatment of this relationship is described in Shin et al. 2018.
# [3] = test system: T-cell populations within MC38 tumors; experiment: Effector/regulatory T-cell ratio in MC38 tumors; type: in vivo, mouse; conditions: 150 mg/kg QD×7
# Procedure: To test if MPC-0767 may induce an anti-tumor immune response in addition to direct cytotoxic activity, down regulation of PD-Ll and the effector/regulatory T-cell ratio was measured in the same MC38 syngeneic model. On day 21, when the average tumor volume was 372 mm^3 in size, a second group of mice (n=6) was treated with 150 mg/kg MPC-0767 QD×7. One day post the last dose (day 28 post inoculation) tumors were harvested from the vehicle and 150 mg/kg MPC-0767 QD×7 group. Tumor infiltrating leukocytes (CD45^+, CD3^−) within the dissociated tumors were analyzed for PD-L1 expression by flow cytometry.
# [4] = test system: OCIAML2 (OCI-AML-2) cells; experiment: CellTiter-Glo cell viability (single agent and combination)
# Procedure: To determine whether MPC-0767 is efficacious against non-FLT3-ITD AML cells, we tested a panel of FLT3-wild type (FLT3-WT) AML cell lines and primary AML blasts for sensitivity to MPC-0767. Cells were treated with MPC-0767 for 72 hours before determining cell viability using the CellTiter-Glo® assay. […] To test whether the combination of MPC-0767 was synergistic with ATO, we tested a panel of AML cell lines. The cell lines include those harboring FLT3-ITD (MOLM-13, MOLM-14 and MV-4-11) or FLT3 WT (ME-1, THP-1, OCI-AML-2, HL60, NOMO-1, TUR and ML-2).
smiles,measurement,setting,value
C[C@H](N)C(=O)O[C@@H](C)C(=O)N1CCC(CCn2c(Sc3cc4c(cc3Br)OCO4)nc3c(N)ncnc32)CC1 [MPC-0767],pEC50,"[1]; Homo sapiens, MOLM-13-R-PKC412, 72 hours",6.14
same,"fold difference in EC50, midostaurin-resistant vs control cells",[1]; MOLM-13-R-PKC412 vs MOLM-13-LUC,less than 1.5 fold
same,pIC50,"MOLM-14 cells (FLT3-ITD); MOLM-14, non-stromal media",6.37
same,pIC50,"MOLM-14 cells (FLT3-ITD); MOLM-14, stromal media (HS-5 conditioned)",6.20
same,viability of KDM6A sgRNA cells vs non-targeting sgRNA,"MOLM-14 cells (FLT3-ITD); MOLM-14, MPC-0767 1 μM",conferred resistance to MPC-0767
same,basal PD-L1 cell surface expression,[2]; MPC-0767 1 μM alone,did not significantly reduce basal PD-L1 cell surface expression
same,IFN-γ-induced PD-L1 cell surface expression,"[2]; MPC-0767 1 μM with IFN-γ 50 ng/ml, P=0.04",significantly reduced the IFN-γ-induced PD-L1 cell surface expression
same,pEC50,MOLM16 cells,6.44
same,MPC-0767 Sensitivity,MOLM16 cells,Sensitive (cell lines having EC50 values below 1 μM were considered to be sensitive)
same,pEC50,"NOMO1 (NOMO-1) cells; Homo sapiens, NOMO-1",5.84
same,MPC-0767 Sensitivity,NOMO1 (NOMO-1) cells,Resistant (EC50 values above 1 μM considered resistant)
same,pEC50,"OCIAML3 cells; Homo sapiens, OCI-AML-3",5.74
same,MPC-0767 Sensitivity,OCIAML3 cells,Resistant (EC50 values above 1 μM considered resistant)
same,pEC50,"THP1 (THP-1) cells; Homo sapiens, THP-1",< 5.00
same,MPC-0767 Sensitivity,THP1 (THP-1) cells,Resistant (EC50 values above 1 μM considered resistant)
same,Combination Index (CI) for apoptotic (active caspase-3+) cells,OCI-AML2 AML cell line,0.53
same,CD4:TREG ratio,[3],significant increase
same,CD8:TREG ratio,[3],significant increase
same,pEC50,"[4]; Homo sapiens, OCI-AML2, 72 h",6.20
same,MPC-0767 Sensitivity,"[4]; OCIAML2, 72 h",Sensitive (cell lines having EC50 values below 1 μM were considered to be sensitive)

# Reference: US20200253979A1, “THERAPEUTIC METHODS RELATING TO HSP90 INHIBITORS” (AI Therapeutics, Inc., priority 2017, published 2020)
